According to US5529918A, “Process for preparing neuraminidase” (Fidia S.p.A., priority 1991, dated 1996):

Tested on: neuraminidase from Arthrobacter Sp. (Arthrobacter ureafaciens VR-1, NCIMB 40717), purified, molecular weight 55,000-60,000
Experiment: Neuraminidase enzymatic activity and inhibition (thiobarbituric acid method, released NANA)
Format: biochemical
Details: inhibition of the neuraminidase by NANA; GDia as substrate in the activity test
Method: The enzymatic activity of the neuraminidase is determined at the saturation levels of the substrate concentration, corresponding to 5 times the Km value.
The released product is measured by employing the colorimetric technique (thiobarbituric acid method). For instance, when the neuraminidase enzyme and its substrate (a ganglioside like GDia) are incubated for 5-10 minutes and the NANA, hydrolyzed from the substrate, is employed for evaluating the enzymatic activity, the NANA released in the solution undergoes a series of reactions, in order to determine its actual amount.
Since NANA is also employed for obtaining the culture media of the steady state wherefrom the filtrate is extracted, a few check reactions are carried out, in order to ascertain that the measured NANA be the one coming from the reaction between enzyme and substrate and not the one coming as a residue from the original culture.
For instance, a few tests are carried out on 3 test-tubes, as reported hereinbelow. […]
In the first test-tube (S) there should be no NANA. Should NANA be retrieved in the second test-tube (B), its spectrophotometric reading is subtracted from the reading obtained from the reaction in test-tube three (E). The enzyme activity is therefore indirectly measured as the amount of hydrolized NANA per minute at pH 5.3 and at 37° C., using GDia as the substrate. […]

Q: Which Ki does the source give for CC(=O)N[C@H]1[C@H]([C@H](O)[C@H](O)CO)OC(O)(C(=O)O)C[C@@H]1O (stereo partly shown) [NANA, N-acetyl-neuraminic acid] here?
A: The Ki was ~300 µM.
